Data taken from patent publication US9024018B2, “3-substituted-8-substituted-3H-imidazo[5,1-d][1,2,3,5]tetrazin-4-one compounds and their use” (Pharminox Limited, priority 2009, dated 2015).

What was measured:
Type in all cases: cell-based
SNB19V = test: MTT assay for 7-day toxicity, SNB19V glioma cells (vector control, MGMT-); details: Glioma cell, 168 h, 7 day MTT assay, glioma line SNB19V
Procedure: (§1) The cell culture techniques were carried out in a Class II microbiological safety cabinet which was swabbed with 70% IMS in distilled water before each use. Glioma cells were routinely cultured in Costar tissue culture flasks in RPMI 1640 liquid medium (containing 0.3 g/L L-glutamine and 2 g/L sodium bicarbonate) supplemented with 10% heat inactivated FBS (55-59° C.) for 1 hour to denature complement proteins which would otherwise evoke a cellular immune response resulting in cell lysis, 1% non-essential amino acids, 50 μg/mL gentamicin and 400 μg/mL G418 (vector selection reagent). Colorectal and melanoma cells were maintained in RPMI 1640 supplemented with 10% FBS. MRC-5 cells were cultured in EMEM+10% FBS, 1% pen/strep, 1% non-essential amino acids, 1% HEPES (1M) and 1% sodium bicarbonate.
(§2) Cells were grown at 37° C. in a humidified incubator in an atmosphere comprising 95% air/5% CO2. Cells were sub-cultured when growth exceeded approximately 80% confluence, normally twice weekly. The medium was aspirated from the flask and approximately 0.8 mL trypsin-EDTA 1× solution added. The cells were re-incubated at 37° C. until they had visibly detached from the flask. The cells were re-suspended in 5 mL medium and 0.5-1 mL was transferred to a new flask (25 cm^2) with 7 mL culture medium. The cells were further incubated at 37° C. To minimize phenotypic drift, cells were disposed of once they had been subcultured 30 times. New batches of cells were thawed rapidly in 37° C. water bath once taken from liquid nitrogen storage and re-suspended in 10 mL of culture medium in a 25 cm^2 flask. Cells were passaged twice to allow normal growth to resume prior to use in experiments.
(§3) Most test compounds, including temozolomide, were prepared as 100 mM stock solutions in DMSO and stored at −20° C. for not more than 6 months.
(§4) MTT Assay for 7-Day Toxicity Assay
(§5) This assay was first described in Mosmann, T., 1983, “Rapid colorimetric assay for cellular growth and survival: Application to proliferation and cytotoxicity assays”, Journal of Immunological Methods, Vol. 65, Nos. 1-2, pp. 55-63.
(§6) Glioma cell lines, SNB19 and U373, both stably transfected with MGMT (i.e., SNB19M and U373M) or their respective vector controls (i.e., SNB19V and U373V); colorectal carcinoma cell lines, HCT116, HT29, and DLD1; melanoma cell line, SKMEL-28; breast cell line, MCF-7; and normal human fetal lung fibroblast cell line, MRC-5; were used at 60-80% confluence, during the logarithmic phase of growth.
(§7) Following harvesting with trypsin/EDTA, cells in suspension were gently syringed through a 23 gauge needle to obtain a near-single cell suspension. Cells were then seeded into 96-well plates at the desired density in 180 μL culture medium if only one test compound was to be added, or in 160 μL if two test compounds were to be added in combination. Cells were allowed to attach overnight by incubation at 37° C. in 95% air/5% CO2. For the 7 day assay, the cell seeding densities for the different cell lines were as follows: SNB19V, SNB19M: 650 cells/well; U373V, U373M: 650 cells/well; SNB19VR, U373VR: 650 cells/well; HCT116, DLD-1, SKMEL-28, MRC-5, MCF-7: 400 cells/well.
(§8) The two peripheral lanes of each plate were used as blank wells (cell free) and filled with 200 μL of medium in order to minimise medium evaporation from the plate. A separate time zero (T0) plate was set up alongside other plates. Serial dilutions in tissue culture medium of a 100 mM stock of test compound were prepared immediately before each assay to ten times the final concentrations required. 20 μL was added to each well (200 μL total media per well) to achieve final concentrations of 0.5 μM, 1 μM, 5 μM, 10 μM, 50 μM, 100 μM, 500 μM, and 1000 μM. A minimum of four wells received the same test compound concentration. To control wells, including those in the T0 plate, 20 μL of medium was added. […]

SNB19M = test: MTT assay for 7-day toxicity, SNB19M glioma cells (stably transfected with MGMT, MGMT+); details: Glioma cell, 168 h, 7 day MTT assay, glioma line SNB19M
Procedure: as §1, §2, §3, §4, §5, §6, §7, §8

U373V = test: MTT assay for 7-day toxicity, U373V glioma cells (vector control, MGMT-); details: Glioma cell, 168 h, 7 day MTT assay, glioma line U373V
Procedure: as §1, §2, §3, §4, §5, §6, §7, §8

U373M = test: MTT assay for 7-day toxicity, U373M glioma cells (stably transfected with MGMT, MGMT+); details: Glioma cell, 168 h, 7 day MTT assay, glioma line U373M
Procedure: as §1, §2, §3, §4, §5, §6, §7, §8

SMILES	GI50 (SNB19V) [µM]	GI50 (SNB19M) [µM]	GI50 (U373V) [µM]	GI50 (U373M) [µM]
C#CCn1nnc2c(-c3nc(-c4cccs4)cs3)ncn2c1=O [WW-029, 3-(Prop-2-ynyl)-8-(4-(thiophen-2-yl)thiazol-2-yl)imidazo[5,1-d][1,2,3,5]tetrazin-4(3H)-one]	< 45	< 70	< 75	< 60
C[S+]([O-])Cn1nnc2c(-c3nc(-c4ccccc4)cs3)ncn2c1=O (centres unmarked) [WW-031, 3-(methylsulfinylmethyl)-8-(4-phenylthiazol-2-yl)imidazo[5,1-d][1,2,3,5]tetrazin-4(3H)-one]	< 45	< 70	< 75	< 60
C[S+]([O-])Cn1nnc2c(-c3nc(-c4ccsc4)cs3)ncn2c1=O (centres unmarked) [WW-033, 3-(methylsulfinylmethyl)-8-(4-(thiophen-3-yl)thiazol-2-yl)imidazo[5,1-d][1,2,3,5]tetrazin-4(3H)-one]	< 45	< 70	< 75	< 60
C[S+]([O-])Cn1nnc2c(-c3nc(-c4cccs4)cs3)ncn2c1=O (centres unmarked) [WW-036, 3-(methylsulfinylmethyl)-8-(4-(thiophen-2-yl)thiazol-2-yl)imidazo[5,1-d][1,2,3,5]tetrazin-4(3H)-one]	< 45	< 70	< 75	< 60
Cn1nnc2c(-c3nc(-c4ccccc4)co3)ncn2c1=O [WW-037, 3-Methyl-8-(4-phenyloxazol-2-yl)imidazo[5,1-d][1,2,3,5]tetrazin-4(3H)-one]	< 45	< 70	< 75	< 60
Cn1nnc2c(-c3ncc(-c4ccccc4)o3)ncn2c1=O [WW-038, 3-Methyl-8-(5-phenyloxazol-2-yl)imidazo[5,1-d][1,2,3,5]tetrazin-4(3H)-one]	< 45	< 70	< 75	< 60
C#CCn1nnc2c(-c3nnc(-c4ccccc4)o3)ncn2c1=O [WW-042, 8-(5-Phenyl-1,3,4-oxadiazol-2-yl)-3-(prop-2-ynyl)imidazo[5,1-d][1,2,3,5]tetrazin-4(3H)-one]	< 45	< 70	< 75	< 60
Cn1nnc2c(-c3ncc[nH]3)ncn2c1=O [WW-047, 8-(1H-Imidazol-2-yl)-3-methylimidazo[5,1-d][1,2,3,5]tetrazin-4(3H)-one]	< 45	< 70	< 75	< 60
Cn1nnc2c(-c3nc(-c4cccs4)c[nH]3)ncn2c1=O [WW-048, 3-Methyl-8-(4-(thiophen-2-yl)-1H-imidazol-2-yl)imidazo[5,1-d][1,2,3,5]tetrazin-4(3H)-one]	< 45	< 70	< 75	< 60
Cn1nnc2c(-c3nc(-c4ccccc4)c[nH]3)ncn2c1=O [WW-049, 3-Methyl-8-(4-phenyl-1H-imidazol-2-yl)imidazo[5,1-d][1,2,3,5]tetrazin-4(3H)-one]	< 45	< 70	< 75	< 60
C#CCn1nnc2c(-c3nc(-c4ccccc4)c[nH]3)ncn2c1=O [WW-050, 8-(4-Phenyl-1H-imidazol-2-yl)-3-(prop-2-ynyl)imidazo[5,1-d][1,2,3,5]tetrazin-4(3H)-one]	< 45	< 70	< 75	< 60
Cn1cc(-c2ccccc2)nc1-c1ncn2c(=O)n(C)nnc12 [WW-051, 3-Methyl-8-(1-methyl-4-phenyl-1H-imidazol-2-yl)imidazo[5,1-d][1,2,3,5]tetrazin-4(3H)-one]	< 45	< 70	< 75	< 60
C#CCn1nnc2c(-c3nc(-c4ccccc4)cn3C)ncn2c1=O [WW-052, 8-(1-Methyl-4-phenyl-1H-imidazol-2-yl)-3-(prop-2-ynyl)imidazo[5,1-d][1,2,3,5]tetrazin-4(3H)-one]	< 45	< 70	< 75	< 60
C#CCn1nnc2c(-c3nc4ccccc4o3)ncn2c1=O [WW-055, 8-(Benzo[d]oxazol-2-yl)-3-(prop-2-ynyl)imidazo[5,1-d][1,2,3,5]tetrazin-4(3H)-one]	< 45	< 70	< 75	< 60
Cn1nnc2c(-c3nc4ccccc4s3)ncn2c1=O [WW-058, 8-(Benzo[d]thiazol-2-yl)-3-methylimidazo[5,1-d][1,2,3,5]tetrazin-4(3H)-one]	< 45	< 70	< 75	< 60
Cn1nnc2c(-c3nc4ccccc4[nH]3)ncn2c1=O [WW-062, 8-(1H-Benzo[d]imidazol-2-yl)-3-methylimidazo[5,1-d][1,2,3,5]tetrazin-4(3H)-one]	< 45	< 70	< 75	< 60
C#CCn1nnc2c(-c3nc4ccccc4[nH]3)ncn2c1=O [WW-063, 8-(1H-Benzo[d]imidazol-2-yl)-3-(prop-2-ynyl)imidazo[5,1-d][1,2,3,5]tetrazin-4(3H)-one]	< 45	< 70	< 75	< 60
